# From patent EP0418113A2, “Microbiological assay kit and method for detecting antibacterial compounds” (ORGENICS LIMITED, priority 1989, dated 1991)
# Several values for one entry are separate records, joined by “and”; a condition that tells them apart may be missing. Equal values may be shown once.
# Tests used:
# [1] = tested on: Strep. thermophilus cells; assay: Visual antibiotic assay in milk with lyophilized bacteria subjected to osmotic changes (MTT colour); format: cell-based, Streptococcus thermophilus (ATCC 14485)
# Description: Keep cold until use. • (b) To each 1 mL milk specimen or controls add 0.053 gr glucose and 0.1 mL of rehydrated bacterial suspension obtained in (a) above. Mix and incubate at 42°C for 25 min. • (c) Add 2 mL of a chromogenic mixture, containing 0.5 % glucose and 0.175 mg/mL MTT in water to each of the specimens and controls. Mix and incubate for 5 min at 42°C. • (d) Visually examine the color of each specimen and compare it to the color of the control. A color density lower than the color of the control indicates antibiotic activity in the specimen. Table 5 below summarizes the sensitivity of the visual assay for various antibiotic drugs, added to antibiotic free milk specimens.
# [2] = tested on: Strep. thermophilus cells; assay: Detection of Penicillin G in milk by inhibition of MTT reduction in Strep. thermophilus cells, butanol extraction, OD 570 nm; format: cell-based, Streptococcus thermophilus (ATCC 14485); conditions: isotonic MTT solution (0.3M sucrose); Penicillin concentration 4; lyophilized cells
# [3] = tested on: B. stearothermophilus ATCC 10149; assay: Detection of Penicillin G in milk with B. stearothermophilus cells (MTT reduction); format: cell-based, Bacillus stearothermophilus; conditions: 30 min at 55°C + 10 min MTT
# Description: The whole reaction mixture is filtered through glass filter paper circles (e.g. Whatman GF/F, 2.5 cm diameter). The color can be estimated visually or measured by a reflecting densitometer, such as Gretag D182 (Gretag Ltd., CH-8105 Regensdorf, Switzerland). • (a) Inoculate B. stearothermophilus ATCC 10149 into a liquid medium constructed from 10 % Difco skim milk and 0.5 % Difco yeast extract in water. Incubate at 55°C with constant (shaking) for 18 hrs. • (b) Dilute the overnight culture 1:20 into fresh liquid medium and continue shaking at 55°C for 2 hrs. • (c) Dilute 1:10 into liquid medium fortified with 0.8M sucrose and continue shaking at 55°C for 2.5 hrs. […] Use immediately or keep on ice until ready to continue. • (d) Mix each Penicillin containing milk specimen with an equal volume of B. stearothermophilus suspension, as obtained in Step (c). Shake for 30 minutes at 55°C. • (e) Add MTT solution, as described in Example 2 (d) and continue shaking for 10 minutes at 55°C. • (f) Determine the amount of MTT dye as described in Example 3(b).
# [4] = tested on: Strep. thermophilus cells; assay: Detection of Penicillin G in milk by inhibition of MTT reduction in Strep. thermophilus cells, butanol extraction, OD 570 nm; format: cell-based, Streptococcus thermophilus (ATCC 14485)
# Description: • (a) Streak Streptococcus thermophilus (ATCC 14485) suspension on solid medium, comprising 10 % Difco skim milk, 0,5 % Difco yeast extract, 2 % Agar in distilled water. Distinct colonies should emerge after overnight incubation at 42°C. • (b) Suspended a colony in 10 mL of a liquid medium, comprising 10 % Difco skim milk and 0.5 % Difco yeast extract in water (medium A). Incubate the suspension overnight at 42°C in 12 mL plastic, disposable centrifuge test tubes. • (c) Dilute the resultant suspension 1:10 into medium A and incubate at 42°C until the pH of the medium drops to 5.0 (about 2hrs). The resulting viable cell concentration is 1-2x10⁸/1mL. • (d) Cell concentration can be increased by adding 1N NaOH solution until the pH is raised to 6.2, and continuing incubation at 42°C until the pH drops again to 5.0. This cycle can be repeated 5-7 times until the culture becomes stationary at 1-2x10⁹ cells/mL. • (e) Adjust cell concentration to 1 x 10⁸ cells mL and store at 6-10°C for up to 24 hrs for use in antibiotic assay. Alternatively, distribute 2 mL aliquots of the suspension into 12 mL Penicillin vials (24 x 45 mm), freeze in liquid nitrogen and dry on refrigerated shelves of a stoppering, programmable lyophilizer, employing a 48-72 hour program.
# • (a) Add 2 mL of distilled water to each vial of dried Strep. thermophilus cells, prepared as described in Example 1. Freshly grown Strep. thermophilus at 1x10⁸ cells/mL are used without any treatment. • (b) Construct reaction mixtures for the detection of antibiotic activity in milk specimens from 0.4 mL cell suspension (fresh or rehydrated lyophilized), 1.6 mL milk specimen, 0.05 mL 10 % Difco Yeast Extract and 0.05 mL 10 % Difco Tryptose. Include at least one control milk specimen, known not to contain any antibiotic drug, whenever the Antibiotic assay is employed. • (c) Incube the complete antibiotic exposure mixtures of the control and unknown milk specimens for 25 minutes at 42°C. • (d) Upon completion of the incubation mix 0.4 mL aliquots of all reaction mixtures with 1.6 mL of 0.5 % glucose, 0.175 mg/mL MTT (3-[4,5-Dimethylthiazol-2-yl]-2.5 diphenyltetrazolium bromide) in water, and incubate for 5 minutes. The amount of color resulting from MTT reduction can be estimated by one of the methods detailed in Example 3.
# Transfer a 0.75 mL aliquot of the reaction mixture to a 2 mL microcentrifuge test tube. Add 0.75 mL 1-Butanol. Agitate on a vortex mixer for 15 seconds. Centrifuge the suspension at 10,000 x g for 2.5 minutes. Transfer 0.6 mL the upper clear, colored phase to a clean microcentrifuge test tube, containing 0.6 mL 1-Butanol. Agitate on a vortex mixer for 15 seconds. Centrifuge the suspension at 10,000 x g for 2.5 minutes. Transfer 1 mL the upper clear, colored phase to a clean cuvette. Determine the color density at 570 nm.
# Milk specimens containing 3.5 or 7 mIU/mL of Penicillin G were tested with lyophilized Strep. thermophilus organisms, as described in Example 2. Color development for each antibiotic concentration was carried out either with the MTT solution as described in section (d) of Example 2, which is hypotonic or with the same solution, made isotonic by the addition of sucrose to 0.3M final concentration.
# The amount of MTT color produced was determined by measuring the optical density of butanol extract made from the reaction mixtures (example 3 (d)).
# Milk specimens containing 1-14 mIU:mL Penicillin G, were tested as described in Example 2 for lyophilized bacteria.
# Milk specimens, containing 7 mIU/mL of Penicillin G were tested as described in Example 2 for lyophilized Strep. thermophilus cultivated to high density by pH adjustments. Incubation times of the milk specimens with the indicator bacteria varied between 10 and 25 minutes. Incubation with the MTT solution varied between 5 and 10 minutes. The amount of MTT color produced was determined by measuring the optical density of butanol extract made from the reaction mixtures (example 3 (d)). […]
# [5] = tested on: B. stearothermophilus (ATCC 10149) cells; assay: Inhibition of MTT colour formation in B. stearothermophilus after pre-incubation in isotonic or hypertonic medium (Tryptic Soy broth); format: cell-based, Bacillus stearothermophilus; conditions: specimen containing 40 mIU/mL Penicillin G
# Description: Logarithmic B. stearothermophilus (ATCC 10149) cells were suspended in Difco Tryptic Soy broth with or without 0.8M sucrose, and incubated at 55°C with shaking for 1 hr. […] Control reaction mixture was constructed with bacterial suspension and Tryptic Soy broth. Following a 30 min incubation at 55°C, all reaction mixtures were diluted 1:5 into […] MTT, 0.5 glucose in water and incubation continued for 5 minutes. The color suspension was clarified by vigorously mixing 0.5 mL aliquots with 0.7 mL isoamyl alcohol containing 0.04N hydrochloric acid. The optical density of the clarified mixtures was measured at 570 nm and the inhibition of color formation, relative to the control was calculated and is presented in Table 7.
# [6] = added to antibiotic free milk, 25 min at 42°C + 5 min MTT
# [7] = Penicillin G Concentration 16 mIU/mL in milk
# [8] = Penicillin G Concentration 32 mIU/mL in milk
# [9] = Penicillin Concentration 1 mIU/mL, lyophilized cells
# [10] = Penicillin Concentration 2 mIU/mL, lyophilized cells
# [11] = Penicillin Concentration 4 mIU/mL, lyophilized cells
# [12] = Penicillin Concentration 7 mIU/mL, lyophilized cells
# [13] = Penicillin Concentration 14 mIU/mL, lyophilized cells
# [14] = dried (lyophilized) cells, 7 mIU/mL Penicillin G in milk
# [15] = hypotonic MTT solution, Penicillin concentration 4, lyophilized cells
# [16] = hypotonic MTT solution, Penicillin concentration 7, lyophilized cells
# [17] = isotonic MTT solution (0.3M sucrose), Penicillin concentration 7, lyophilized cells
molecule,measurement,setting,value
CC1(C)S[C@@H]2[C@H](NC(=O)[C@H](N)c3ccccc3)C(=O)N2[C@H]1C(=O)O [Ampicillin],Sensitivity (lowest concentration causing visually detectable decrease in color),[1]; [6],0.002 µg/mL
O=C(N[C@H](CO)[C@H](O)c1ccc([N+](=O)[O-])cc1)C(Cl)Cl [Chloramphenicol],Sensitivity (lowest concentration causing visually detectable decrease in color),[1]; [6],2.5 µg/mL
Cc1onc(-c2ccccc2Cl)c1C(=O)N[C@@H]1C(=O)N2[C@@H]1SC(C)(C)[C@@H]2C(=O)O [Cloxacillin],Sensitivity (lowest concentration causing visually detectable decrease in color),[1]; [6],0.002 µg/mL
CN(C)[C@@H]1C(O)=C(C(N)=O)C(=O)[C@@]2(O)C(O)=C3C(=O)c4c(O)cccc4[C@@](C)(O)[C@H]3[C@H](O)[C@@H]12 [Oxytetracycline],Sensitivity (lowest concentration causing visually detectable decrease in color),[1]; [6],0.4 µg/mL
CC1(C)S[C@@H]2[C@H](NC(=O)Cc3ccccc3)C(=O)N2[C@H]1C(=O)O [Penicillin G],Sensitivity (lowest concentration causing visually detectable decrease in color),[1]; [6],3.5 mIU/mL
same,% inhibition,[2],3%
same,% inhibition,[3]; [7],34%
same,OD at 570 nm,[3]; [7],0.250
same,% inhibition,[3]; [8],59%
same,OD at 570 nm,[3]; [8],0.155
same,Inhibition (%),"[4]; 7 mIU/mL Penicillin G, first incubation 10 min, MTT 5 min (total 15 min), lyophilized high-density cells",7%
same,Inhibition (%),"[4]; 7 mIU/mL Penicillin G, first incubation 10 min, MTT 10 min (total 20 min), lyophilized high-density cells",40% and 42%
same,Inhibition (%),"[4]; 7 mIU/mL Penicillin G, first incubation 15 min, MTT 5 min (total 20 min), lyophilized high-density cells",21%
same,Inhibition (%),"[4]; 7 mIU/mL Penicillin G, first incubation 15 min, MTT 10 min (total 25 min), lyophilized high-density cells",42%
same,Inhibition (%),"[4]; 7 mIU/mL Penicillin G, first incubation 20 min, MTT 5 min (total 25 min), lyophilized high-density cells",77%
same,Inhibition (%),"[4]; 7 mIU/mL Penicillin G, first incubation 20 min, MTT 10 min (total 30 min), lyophilized high-density cells",53%
same,Inhibition (%),"[4]; 7 mIU/mL Penicillin G, first incubation 25 min, MTT 5 min (total 30 min), lyophilized high-density cells",62%
same,Inhibition (%),"[4]; 7 mIU/mL Penicillin G, first incubation 25 min, MTT 10 min (total 35 min), lyophilized high-density cells",57%
same,Inhibition (%),[4]; [9],17%
same,OD at 570 nm,[4]; [9],0.098
same,Inhibition (%),[4]; [10],32%
same,OD at 570 nm,[4]; [10],0.080
same,Inhibition (%),[4]; [11],56%
same,OD at 570 nm,[4]; [11],0.052
same,Inhibition (%),[4]; [12],74%
same,OD at 570 nm,[4]; [12],0.031
same,Inhibition (%),[4]; [13],80%
same,OD at 570 nm,[4]; [13],0.024
same,% inhibition,[4]; [14],60%
same,OD 570 nm in 7 mIU/mL Penicillin Specimen,[4]; [14],0.062
same,% inhibition,"[4]; fresh cells, 7 mIU/mL Penicillin G in milk",55%
same,OD 570 nm in 7 mIU/mL Penicillin Specimen,"[4]; fresh cells, 7 mIU/mL Penicillin G in milk, 25 min at 42°C + 5 min MTT",0.088
same,% inhibition,[4]; [15],56%
same,OD at 570 nm,[4]; [15],0.052
same,% inhibition,[4]; [16],74%
same,OD at 570 nm,[4]; [16],0.031
same,OD at 570 nm,"[4]; isotonic MTT solution (0.3M sucrose), Penicillin concentration 4, lyophilized cells",0.113
same,% inhibition,[4]; [17],34%
same,OD at 570 nm,[4]; [17],0.077
same,concentration detectable in milk,"[4]; lyophilized cells, butanol extraction, OD 570 nm",1 mIU/mL
same,% Inhibition with,[5]; hypertonic pre-incubation medium (0.8M sucrose),54%
same,% Inhibition with,[5]; isotonic pre-incubation medium (without sucrose),10%
Nc1ccc(S(=O)(=O)Nc2ncccn2)cc1 [Sulfadiazine],Sensitivity (lowest concentration causing visually detectable decrease in color),"[1]; test conducted in presence of 10 ug.mL trimethoprim, added to the milk specimen",20 ug/mL^b
CN(C)[C@@H]1C(O)=C(C(N)=O)C(=O)[C@@]2(O)C(O)=C3C(=O)c4c(O)cccc4[C@@](C)(O)[C@H]3C[C@@H]12 [Tetracycline],Sensitivity (lowest concentration causing visually detectable decrease in color),[1]; [6],0.2 µg/mL
Polymyxin,Sensitivity (lowest concentration causing visually detectable decrease in color),[1]; [6],10 µg/mL
